Reference: article PMC5529566, “The cryo-EM structure of gastric H^+,K^+-ATPase with bound BYK99, a high-affinity member of K^+-competitive, imidazo[1,2-a]pyridine inhibitors” (Scientific Reports, 2017)

Legend:
H^+,K^+-ATPase Y799F = H^+,K^+-ATPase Y799F (Sus scrofa, UniProt P19156, Y800F); test: ATPase assay, Y799F mutant
H^+,K^+-ATPase D137L = H^+,K^+-ATPase D137L (Sus scrofa, UniProt P19156, D138L); test: ATPase assay, D137L mutant
H^+,K^+-ATPase L139A = H^+,K^+-ATPase L139A (Sus scrofa, UniProt P19156, L140A); test: ATPase assay, L139A mutant
H^+,K^+-ATPase N138I = H^+,K^+-ATPase N138I (Sus scrofa, UniProt P19156, N139I); test: ATPase assay, N138I mutant
H^+,K^+-ATPase D136A = H^+,K^+-ATPase D136A (Sus scrofa, UniProt P19156, D137A); test: ATPase assay, D136A mutant
H^+,K^+-ATPase D137F = H^+,K^+-ATPase D137F (Sus scrofa, UniProt P19156, D138F); test: ATPase assay, D137F mutant
H^+,K^+-ATPase D137I = H^+,K^+-ATPase D137I (Sus scrofa, UniProt P19156, D138I); test: ATPase assay, D137I mutant
H^+,K^+-ATPase D136I = H^+,K^+-ATPase D136I (Sus scrofa, UniProt P19156, D137I); test: ATPase assay, D136I mutant
[1] = biological target: H^+,K^+-ATPase A335C/C813A (Sus scrofa, UniProt P19156, A336C/C814A); test: ATPase assay, A335C/C813A mutant
H^+,K^+-ATPase L139F = H^+,K^+-ATPase L139F (Sus scrofa, UniProt P19156, L140F); test: ATPase assay, L139F mutant
H^+,K^+-ATPase N138A = H^+,K^+-ATPase N138A (Sus scrofa, UniProt P19156, N139A); test: ATPase assay, N138A mutant
H^+,K^+-ATPase Y140I = H^+,K^+-ATPase Y140I (Sus scrofa, UniProt P19156, Y141I); test: ATPase assay, Y140I mutant
H^+,K^+-ATPase = H^+,K^+-ATPase (Sus scrofa, UniProt P19156); test: Dose-dependent inhibition of H^+,K^+-ATPase activity in the presence of 10 mM KCl
H^+,K^+-ATPase L141I = H^+,K^+-ATPase L141I (Sus scrofa, UniProt P19156, L142I); test: ATPase assay, L141I mutant
H^+,K^+-ATPase L809F = H^+,K^+-ATPase L809F (Sus scrofa, UniProt P19156, L810F); test: ATPase assay, L809F mutant
H^+,K^+-ATPase N138L = H^+,K^+-ATPase N138L (Sus scrofa, UniProt P19156, N139L); test: ATPase assay, N138L mutant
H^+,K^+-ATPase Y140F = H^+,K^+-ATPase Y140F (Sus scrofa, UniProt P19156, Y141F); test: ATPase assay, Y140F mutant
H^+,K^+-ATPase A335G = H^+,K^+-ATPase A335G (Sus scrofa, UniProt P19156, A336G); test: ATPase assay, A335G mutant
H^+,K^+-ATPase L139I = H^+,K^+-ATPase L139I (Sus scrofa, UniProt P19156, L140I); test: ATPase assay, L139I mutant
H^+,K^+-ATPase Y799A = H^+,K^+-ATPase Y799A (Sus scrofa, UniProt P19156, Y800A); test: ATPase assay, Y799A mutant
H^+,K^+-ATPase Y140L = H^+,K^+-ATPase Y140L (Sus scrofa, UniProt P19156, Y141L); test: ATPase assay, Y140L mutant
H^+,K^+-ATPase WT = biological target: T1, H^+,K^+-ATPase WT (Sus scrofa, UniProt P19156); test: K^+-competitive inhibition of H^+,K^+-ATPase activity, 96-well ATPase assay, wild-type; format: biochemical, pig; settings: WT
T1 construct: made in house; host or cells: HEK293S GnT1- cells (BacMam baculovirus transduction); permeabilised membrane fractions

H^+,K^+-ATPase D136L = H^+,K^+-ATPase D136L (Sus scrofa, UniProt P19156, D137L); test: ATPase assay, D136L mutant
H^+,K^+-ATPase Y140A = H^+,K^+-ATPase Y140A (Sus scrofa, UniProt P19156, Y141A); test: ATPase assay, Y140A mutant
H^+,K^+-ATPase N138F = H^+,K^+-ATPase N138F (Sus scrofa, UniProt P19156, N139F); test: ATPase assay, N138F mutant
H^+,K^+-ATPase D136F = H^+,K^+-ATPase D136F (Sus scrofa, UniProt P19156, D137F); test: ATPase assay, D136F mutant
H^+,K^+-ATPase D137A = H^+,K^+-ATPase D137A (Sus scrofa, UniProt P19156, D138A); test: ATPase assay, D137A mutant

Chain of H^+,K^+-ATPase D137L (P19156 whole entry D138L): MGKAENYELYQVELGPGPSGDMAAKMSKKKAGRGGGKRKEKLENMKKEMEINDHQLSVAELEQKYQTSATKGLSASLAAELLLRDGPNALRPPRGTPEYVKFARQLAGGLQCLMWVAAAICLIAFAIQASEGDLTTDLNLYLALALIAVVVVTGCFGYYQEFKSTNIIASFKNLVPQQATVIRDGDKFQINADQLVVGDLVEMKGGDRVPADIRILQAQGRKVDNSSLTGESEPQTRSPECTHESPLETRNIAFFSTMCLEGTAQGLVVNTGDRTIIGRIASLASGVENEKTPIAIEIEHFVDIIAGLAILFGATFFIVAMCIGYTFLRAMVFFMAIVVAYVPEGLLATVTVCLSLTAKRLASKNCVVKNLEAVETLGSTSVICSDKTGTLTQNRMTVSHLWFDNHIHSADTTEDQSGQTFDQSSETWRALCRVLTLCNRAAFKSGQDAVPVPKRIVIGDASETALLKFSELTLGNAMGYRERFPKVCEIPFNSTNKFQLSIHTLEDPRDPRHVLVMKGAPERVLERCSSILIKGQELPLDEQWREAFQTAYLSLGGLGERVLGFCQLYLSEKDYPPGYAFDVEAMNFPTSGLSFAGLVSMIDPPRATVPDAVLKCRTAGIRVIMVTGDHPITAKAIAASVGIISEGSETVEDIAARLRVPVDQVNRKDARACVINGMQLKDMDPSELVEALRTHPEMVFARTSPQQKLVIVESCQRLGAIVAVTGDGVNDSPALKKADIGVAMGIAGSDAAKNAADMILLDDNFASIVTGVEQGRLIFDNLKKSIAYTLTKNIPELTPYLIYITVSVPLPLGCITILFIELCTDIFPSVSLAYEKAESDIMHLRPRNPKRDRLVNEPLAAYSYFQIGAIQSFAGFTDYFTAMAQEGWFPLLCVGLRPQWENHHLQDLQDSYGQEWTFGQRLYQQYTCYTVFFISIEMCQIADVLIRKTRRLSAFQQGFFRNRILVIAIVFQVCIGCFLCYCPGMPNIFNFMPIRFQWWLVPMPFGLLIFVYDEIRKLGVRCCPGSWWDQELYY
Chain of H^+,K^+-ATPase D137L (P18434 whole entry partner): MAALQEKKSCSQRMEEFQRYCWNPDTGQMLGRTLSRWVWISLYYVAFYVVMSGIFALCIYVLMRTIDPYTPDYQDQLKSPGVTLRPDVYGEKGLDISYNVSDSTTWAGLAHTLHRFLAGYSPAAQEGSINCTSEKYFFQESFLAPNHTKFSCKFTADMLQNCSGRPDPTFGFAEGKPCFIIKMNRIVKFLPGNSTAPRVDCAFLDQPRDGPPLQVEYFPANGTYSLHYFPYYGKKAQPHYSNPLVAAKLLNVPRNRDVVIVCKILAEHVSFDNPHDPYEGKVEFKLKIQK
Chain of H^+,K^+-ATPase Y140I (P19156 whole entry Y141I): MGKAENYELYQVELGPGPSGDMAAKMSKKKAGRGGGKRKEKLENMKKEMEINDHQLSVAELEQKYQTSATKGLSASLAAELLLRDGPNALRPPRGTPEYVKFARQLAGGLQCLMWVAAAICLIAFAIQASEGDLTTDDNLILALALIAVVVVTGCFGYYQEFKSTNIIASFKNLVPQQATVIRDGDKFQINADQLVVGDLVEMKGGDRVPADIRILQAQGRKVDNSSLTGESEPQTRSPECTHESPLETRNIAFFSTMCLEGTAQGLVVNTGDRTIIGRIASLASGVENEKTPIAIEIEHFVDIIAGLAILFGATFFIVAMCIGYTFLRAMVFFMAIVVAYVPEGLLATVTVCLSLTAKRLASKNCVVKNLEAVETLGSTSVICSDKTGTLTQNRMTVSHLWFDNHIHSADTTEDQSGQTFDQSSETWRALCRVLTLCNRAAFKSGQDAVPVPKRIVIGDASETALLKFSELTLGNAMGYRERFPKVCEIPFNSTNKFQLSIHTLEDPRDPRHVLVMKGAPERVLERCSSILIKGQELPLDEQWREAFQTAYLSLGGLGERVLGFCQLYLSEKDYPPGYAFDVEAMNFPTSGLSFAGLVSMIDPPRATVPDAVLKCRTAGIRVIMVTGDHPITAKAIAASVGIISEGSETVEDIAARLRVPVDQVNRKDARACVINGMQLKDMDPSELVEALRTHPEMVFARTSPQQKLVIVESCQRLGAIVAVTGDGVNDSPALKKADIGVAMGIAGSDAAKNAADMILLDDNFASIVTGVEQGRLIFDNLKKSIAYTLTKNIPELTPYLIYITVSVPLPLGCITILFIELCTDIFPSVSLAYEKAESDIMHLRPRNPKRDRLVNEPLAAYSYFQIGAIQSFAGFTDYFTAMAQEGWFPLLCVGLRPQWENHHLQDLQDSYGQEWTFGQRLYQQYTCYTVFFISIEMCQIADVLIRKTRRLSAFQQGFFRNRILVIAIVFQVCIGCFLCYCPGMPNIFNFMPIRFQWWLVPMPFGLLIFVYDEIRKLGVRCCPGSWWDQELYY
Chain of H^+,K^+-ATPase Y140I (P18434 whole entry partner): as the sequence (P18434 whole entry partner) above
Chain of H^+,K^+-ATPase A335C/C813A (P19156 whole entry A336C/C814A): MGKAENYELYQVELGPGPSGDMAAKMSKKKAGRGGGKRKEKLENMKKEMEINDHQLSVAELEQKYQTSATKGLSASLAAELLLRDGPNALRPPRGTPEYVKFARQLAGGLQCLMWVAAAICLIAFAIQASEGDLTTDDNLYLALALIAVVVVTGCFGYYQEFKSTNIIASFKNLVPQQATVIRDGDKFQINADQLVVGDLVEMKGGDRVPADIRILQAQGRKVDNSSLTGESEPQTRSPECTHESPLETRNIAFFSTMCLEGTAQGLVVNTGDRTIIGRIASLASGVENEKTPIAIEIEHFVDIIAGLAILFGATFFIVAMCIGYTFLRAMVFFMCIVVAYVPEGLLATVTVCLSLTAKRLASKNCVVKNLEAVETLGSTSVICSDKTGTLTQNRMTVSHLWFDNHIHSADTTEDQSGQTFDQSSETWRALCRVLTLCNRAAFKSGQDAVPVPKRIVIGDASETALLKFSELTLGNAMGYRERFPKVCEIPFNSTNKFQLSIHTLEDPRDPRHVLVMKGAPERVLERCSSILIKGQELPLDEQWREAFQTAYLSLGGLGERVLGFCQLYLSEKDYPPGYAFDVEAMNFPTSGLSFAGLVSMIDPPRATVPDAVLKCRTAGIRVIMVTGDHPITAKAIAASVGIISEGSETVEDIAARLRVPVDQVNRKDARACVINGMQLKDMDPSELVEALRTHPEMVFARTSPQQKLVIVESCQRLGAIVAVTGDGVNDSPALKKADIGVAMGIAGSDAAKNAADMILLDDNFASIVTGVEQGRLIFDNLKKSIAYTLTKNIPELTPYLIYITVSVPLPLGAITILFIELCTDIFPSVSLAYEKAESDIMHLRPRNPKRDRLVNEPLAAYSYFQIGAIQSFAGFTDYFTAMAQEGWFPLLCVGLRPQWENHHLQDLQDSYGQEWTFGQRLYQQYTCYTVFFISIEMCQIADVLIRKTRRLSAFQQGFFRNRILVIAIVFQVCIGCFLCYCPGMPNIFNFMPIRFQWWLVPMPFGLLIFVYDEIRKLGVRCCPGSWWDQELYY
Chain of H^+,K^+-ATPase A335C/C813A (P18434 whole entry partner): as the sequence (P18434 whole entry partner) above
Chain of H^+,K^+-ATPase A335G (P19156 whole entry A336G): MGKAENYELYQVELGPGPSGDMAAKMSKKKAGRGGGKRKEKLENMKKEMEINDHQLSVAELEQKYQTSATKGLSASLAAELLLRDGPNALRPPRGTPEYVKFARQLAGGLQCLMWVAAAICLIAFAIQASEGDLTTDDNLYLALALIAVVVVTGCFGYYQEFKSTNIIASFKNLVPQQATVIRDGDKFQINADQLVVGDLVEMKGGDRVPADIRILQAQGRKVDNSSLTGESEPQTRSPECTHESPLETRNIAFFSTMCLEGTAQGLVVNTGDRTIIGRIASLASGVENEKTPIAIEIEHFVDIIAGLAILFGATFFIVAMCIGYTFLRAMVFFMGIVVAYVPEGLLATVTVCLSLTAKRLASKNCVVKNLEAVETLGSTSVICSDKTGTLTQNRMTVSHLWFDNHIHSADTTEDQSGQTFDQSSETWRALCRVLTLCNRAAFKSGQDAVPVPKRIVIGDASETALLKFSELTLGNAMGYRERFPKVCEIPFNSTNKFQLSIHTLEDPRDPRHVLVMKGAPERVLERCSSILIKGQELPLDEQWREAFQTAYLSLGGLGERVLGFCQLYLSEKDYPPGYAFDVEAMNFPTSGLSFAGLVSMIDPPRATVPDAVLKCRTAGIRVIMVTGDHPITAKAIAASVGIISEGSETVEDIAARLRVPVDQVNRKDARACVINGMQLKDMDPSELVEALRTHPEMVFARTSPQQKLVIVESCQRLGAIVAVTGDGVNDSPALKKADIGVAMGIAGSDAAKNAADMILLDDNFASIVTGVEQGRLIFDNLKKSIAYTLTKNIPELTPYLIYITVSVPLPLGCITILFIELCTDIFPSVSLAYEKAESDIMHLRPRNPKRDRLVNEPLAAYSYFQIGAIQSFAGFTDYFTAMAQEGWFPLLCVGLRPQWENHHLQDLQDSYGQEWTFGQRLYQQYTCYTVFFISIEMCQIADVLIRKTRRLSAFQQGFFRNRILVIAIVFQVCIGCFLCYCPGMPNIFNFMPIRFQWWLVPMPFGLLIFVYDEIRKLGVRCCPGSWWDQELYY
Chain of H^+,K^+-ATPase A335G (P18434 whole entry partner): as the sequence (P18434 whole entry partner) above

## N#CCc1cnc2c(OCc3ccccc3)cccn12 [SCH-Me^−]
H^+,K^+-ATPase Y799F
  Ki: 31 ± 3 µM
H^+,K^+-ATPase Y799F; Y799F
  -fold increase in K i compared with wild-type: 2.8 fold
H^+,K^+-ATPase D137L
  Ki: 270 ± 100 µM
H^+,K^+-ATPase D137L; D137L
  -fold increase in K i compared with wild-type: 25 fold
H^+,K^+-ATPase L139A
  Ki: 8.7 ± 0.7 µM
H^+,K^+-ATPase L139A; L139A
  -fold increase in K i compared with wild-type: 0.8 fold
H^+,K^+-ATPase N138I
  Ki: 0.95 ± 0.23 µM
H^+,K^+-ATPase N138I; N138I
  -fold increase in K i compared with wild-type: 0.09 fold
H^+,K^+-ATPase D136A
  Ki: 11 ± 1 µM
H^+,K^+-ATPase D136A; D136A
  -fold increase in K i compared with wild-type: 1.0 fold
H^+,K^+-ATPase D137F
  Ki: 34 ± 7 µM
H^+,K^+-ATPase D137F; D137F
  -fold increase in K i compared with wild-type: 3.1 fold
H^+,K^+-ATPase D137I
  Ki: 170 ± 40 µM
H^+,K^+-ATPase D137I; D137I
  -fold increase in K i compared with wild-type: 16 fold
H^+,K^+-ATPase D136I
  Ki: 6.8 ± 0.6 µM
H^+,K^+-ATPase D136I; D136I
  -fold increase in K i compared with wild-type: 0.6 fold
[1]
  Ki: 4200 ± 2300 µM
[1]; A335C/C813A
  -fold increase in K i compared with wild-type: 382 fold
H^+,K^+-ATPase L139F
  Ki: 13 ± 1 µM
H^+,K^+-ATPase L139F; L139F
  -fold increase in K i compared with wild-type: 1.2 fold
H^+,K^+-ATPase N138A
  Ki: 0.56 ± 0.08 µM
H^+,K^+-ATPase N138A; N138A
  -fold increase in K i compared with wild-type: 0.05 fold
H^+,K^+-ATPase Y140I
  Ki: 5 ± 0.8 µM
H^+,K^+-ATPase Y140I; Y140I
  -fold increase in K i compared with wild-type: 0.5 fold
H^+,K^+-ATPase
  IC50: 54 µM
H^+,K^+-ATPase L141I
  Ki: 7.3 ± 0.8 µM
H^+,K^+-ATPase L141I; L141I
  -fold increase in K i compared with wild-type: 0.7 fold
H^+,K^+-ATPase L809F
  Ki: 110 ± 20 µM
H^+,K^+-ATPase L809F; L809F
  -fold increase in K i compared with wild-type: 10 fold
H^+,K^+-ATPase N138L
  Ki: 23 ± 7 µM
H^+,K^+-ATPase N138L; N138L
  -fold increase in K i compared with wild-type: 2.1 fold
H^+,K^+-ATPase Y140F
  Ki: 21 ± 3 µM
H^+,K^+-ATPase Y140F; Y140F
  -fold increase in K i compared with wild-type: 1.9 fold
H^+,K^+-ATPase A335G
  Ki: 1.6 ± 0.2 µM
H^+,K^+-ATPase A335G; A335G
  -fold increase in K i compared with wild-type: 0.15 fold
H^+,K^+-ATPase L139I
  Ki: 2.3 ± 0.3 µM
H^+,K^+-ATPase L139I; L139I
  -fold increase in K i compared with wild-type: 0.2 fold
H^+,K^+-ATPase Y799A
  Ki: 740 ± 170 µM
H^+,K^+-ATPase Y799A; Y799A
  -fold increase in K i compared with wild-type: 67 fold
H^+,K^+-ATPase Y140L
  Ki: 3.7 ± 0.4 µM
H^+,K^+-ATPase Y140L; Y140L
  -fold increase in K i compared with wild-type: 0.3 fold
H^+,K^+-ATPase WT
  -fold increase in K i compared with wild-type: 1.0 fold
H^+,K^+-ATPase WT; global fitting, mean ± SEM
  Ki: 11 ± 0.1 µM
H^+,K^+-ATPase D136L
  Ki: 5.4 ± 0.5 µM
H^+,K^+-ATPase D136L; D136L
  -fold increase in K i compared with wild-type: 0.5 fold
H^+,K^+-ATPase Y140A
  Ki: 13 ± 1 µM
H^+,K^+-ATPase Y140A; Y140A
  -fold increase in K i compared with wild-type: 1.2 fold
H^+,K^+-ATPase N138F
  Ki: 320 ± 300 µM
H^+,K^+-ATPase N138F; N138F
  -fold increase in K i compared with wild-type: 29 fold
H^+,K^+-ATPase D136F
  Ki: 6.7 ± 0.5 µM
H^+,K^+-ATPase D136F; D136F
  -fold increase in K i compared with wild-type: 0.6 fold
H^+,K^+-ATPase D137A
  Ki: 61 ± 7 µM
H^+,K^+-ATPase D137A; D137A
  -fold increase in K i compared with wild-type: 5.5 fold
